Experiments:
Experiment in all cases: Flow cytometry of platelet antigen expression, platelet rich plasma
Type in all cases: cell-based, human
Settings in all cases: PRP
[1] = system: GP Ib
Description: (§1) For ex vivo assessment of the SSRIs effect on a PAM, a level of a PAM can be assessed by flow cytometry by first obtaining a sample that comprises platelets and then contacting the sample with a platelet activation agonist, such as phorbol myristate acetate (PMA), ADP (adenosine diphosphate), thrombin, collagen, and/or TRAP (thrombin receptor activating peptide), under conditions suitable for activation of platelets in the sample. The sample is in contact with the agonist preferably for a period of time effective to maximally activate the platelets. […] NDMS at 31.1, 64.1 or 143 ng./ml). Then one contacts or stains the samples with a composition that comprises an anti-PAM antibody e.g., having a fluorescent label, preferably in an amount in excess of that required to bind the PAM expressed on the platelets, under conditions suitable for the formation of labeled complexes between the anti-PAM antibody and activated platelets. Then the formation of the complex in the sample is determined (detected or measured). […] The blood-ACD mixture was centrifuged at 1000 r.p.m. for 10 minutes at room temperature. […] The PRP was then centrifuged at 3000 r.p.m. for 10 minutes. […] All cells were then divided into ten plastic capped tubes. Nine portions of washed platelets were incubated with 5 μfluorescein isothiocyanate (FITC)-conjugated antibodies in the dark at +4 °C for 30 minutes, and one part remained unstained and served as a negative control. Surface antigen expression was measured with monoclonal murine anti-human antibodies: CD9 (p24); CD41a (IIb/IIIa, aIIIbb3); CD42b (Ib); CD61(IIIa) (DAKO Corporation, Carpinteria Calif.); CD49b (VLA-2, or a2b1); CD62p (P-selectin); CD31 (PECAM-1); […] The instrument was calibrated daily with fluorescence beads (CaliBRITE; Becton Dickinson) and measured FITC-conjugated fluorescence intensity. All parameters were obtained using four decade logarithmic amplification. The data was collected and stored in list mode, and then analyzed using CELLQuest® (version 1.2.2) software. Procedures are described in detail in (Gurbel, P. […] Serebruany, V. […] Gurbel, P. A. et al., Coron Artery Dis 9: 451-456 (1998) and Serebruany, V. L. et al., Arterioscl Thromb Vasc Biol 19: 153-158 (1999)). The data in table 1 was obtained using the methods described herein, and in particular, in Examples 1 and 2. The levels of various PAMs were assess from samples of human volunteers.

[2] = system: GP IIb
Description: as §1

[3] = system: GP IIIa
Description: as §1

[4] = system: PECAM-1
Description: as §1

[5] = system: GP IIb/IIIa
Description: as §1

[6] = system: CD9
Description: as §1

[7] = system: CPIa-IIa
Description: as §1

[8] = healthy volunteers, desmethylsertraline 31.1 ng/ml
[9] = healthy volunteers, desmethylsertraline 64.2 ng/ml
[10] = healthy volunteers, desmethylsertraline 143 ng/ml
[11] = post-angioplasty patient on aspirin, desmethylsertraline 31.1 ng/ml
[12] = post-angioplasty patient on aspirin, desmethylsertraline 64.2 ng/ml
[13] = post-angioplasty patient on aspirin, desmethylsertraline 143 ng/ml

`N[C@H]1CC[C@@H](c2ccc(Cl)c(Cl)c2)c2ccccc21` [Desmethyl sertraline, N-desmethylsertraline] was tested, and the “GP Ib (mean) log fluorescence intensity” value [1, 8] was 146, the “GP Ib (peak) log fluorescence intensity” value [1, 8] was 94 and the “GP Ib (mean) log fluorescence intensity” value [1, 9] was 299. The “GP Ib (peak) log fluorescence intensity” value [1, 9] was 266, the “GP Ib (mean) log fluorescence intensity” value [1, 10] was 309 and the “GP Ib (peak) log fluorescence intensity” value [1, 10] was 336. The “GP Ib (mean) log fluorescence intensity” value [1, 11] was 167, the “GP Ib (peak) log fluorescence intensity” value [1, 11] was 165 and the “GP Ib (mean) log fluorescence intensity” value [1, 12] was 198. The “GP Ib (peak) log fluorescence intensity” value [1, 12] was 167, the “GP Ib (mean) log fluorescence intensity” value [1, 13] was 222 and the “GP Ib (peak) log fluorescence intensity” value [1, 13] was 201. The “GP IIb (mean) log fluorescence intensity” value [2, 8] was 33, the “GP IIb (peak) log fluorescence intensity” value [2, 8] was 31 and the “GP IIb (peak) log fluorescence intensity” value [2, 9] was 31. For the same compound, the “GP IIb (mean) log fluorescence intensity” value [2, 10] was 30, the “GP IIb (peak) log fluorescence intensity” value [2, 10] was 35 and the “GP IIb (mean) log fluorescence intensity” value [2, 11] was 24. The “GP IIb (peak) log fluorescence intensity” value [2, 11] was 21, the “GP IIb (mean) log fluorescence intensity” value [2, 12] was 22 and the “GP IIb (mean) log fluorescence intensity” value [2, 13] was 29. The “GP IIb (peak) log fluorescence intensity” value [2, 13] was 25, the “GP IIIa (mean) log fluorescence intensity” value [3, 8] was 981 and the “GP IIIa (peak) log fluorescence intensity” value [3, 8] was 913. The “GP IIIa (mean) log fluorescence intensity” value [3, 9] was 1178, the “GP IIIa (mean) log fluorescence intensity” value [3, 10] was 1182 and the “GP IIIa (peak) log fluorescence intensity” value [3, 10] was 1046. For the same compound, the “GP IIIa (mean) log fluorescence intensity” value [3, 11] was 1235, the “GP IIIa (peak) log fluorescence intensity” value [3, 11] was 1298 and the “GP IIIa (peak) log fluorescence intensity” value [3, 12] was 1144. The “GP IIIa (mean) log fluorescence intensity” value [3, 13] was 1259, the “GP IIIa (peak) log fluorescence intensity” value [3, 13] was 1219 and the “PECAM-1 (mean) log fluorescence intensity” value [4, 8] was 74. The “PECAM-1 (peak) log fluorescence intensity” value [4, 8] was 60, the “PECAM-1 (mean) log fluorescence intensity” value [4, 9] was 101 and the “PECAM-1 (mean) log fluorescence intensity” value [4, 10] was 81. For the same compound, the “PECAM-1 (peak) log fluorescence intensity” value [4, 10] was 74, the “PECAM-1 (mean) log fluorescence intensity” value [4, 11] was 94 and the “PECAM-1 (peak) log fluorescence intensity” value [4, 11] was 83. For the same compound, the “PECAM-1 (mean) log fluorescence intensity” value [4, 13] was 90, the “PECAM-1 (peak) log fluorescence intensity” value [4, 13] was 84 and the “GP IIb/IIIa (mean) log fluorescence intensity” value [5, 8] was 580. The “GP IIb/IIIa (peak) log fluorescence intensity” value [5, 8] was 457, the “GP IIb/IIIa (mean) log fluorescence intensity” value [5, 9] was 743 and the “GP IIb/IIIa (peak) log fluorescence intensity” value [5, 9] was 649. The “GP IIb/IIIa (mean) log fluorescence intensity” value [5, 10] was 708, the “GP IIb/IIIa (peak) log fluorescence intensity” value [5, 10] was 509 and the “GP IIb/IIIa (mean) log fluorescence intensity” value [5, 11] was 948. The “GP IIb/IIIa (peak) log fluorescence intensity” value [5, 11] was 791, the “GP IIb/IIIa (mean) log fluorescence intensity” value [5, 12] was 918 and the “GP IIb/IIIa (peak) log fluorescence intensity” value [5, 12] was 777. The “GP IIb/IIIa (mean) log fluorescence intensity” value [5, 13] was 836, the “GP IIb/IIIa (peak) log fluorescence intensity” value [5, 13] was 716 and the “CD9 (mean) log fluorescence intensity” value [6, 8] was 728. The “CD9 (peak) log fluorescence intensity” value [6, 8] was 620, the “CD9 (peak) log fluorescence intensity” value [6, 9] was 805 and the “CD9 (mean) log fluorescence intensity” value [6, 10] was 837. For the same compound, the “CD9 (peak) log fluorescence intensity” value [6, 10] was 770, the “CD9 (mean) log fluorescence intensity” value [6, 11] was 908 and the “CD9 (peak) log fluorescence intensity” value [6, 11] was 1046. The “CD9 (mean) log fluorescence intensity” value [6, 12] was 927, the “CD9 (peak) log fluorescence intensity” value [6, 12] was 930 and the “CD9 (mean) log fluorescence intensity” value [6, 13] was 853. For the same compound, the “CD9 (peak) log fluorescence intensity” value [6, 13] was 850, the “CPIa-IIa (mean) log fluorescence intensity” value [7, 8] was 41 and the “CPIa-IIa (peak) log fluorescence intensity” value [7, 8] was 42. The “CPIa-IIa (mean) log fluorescence intensity” value [7, 10] was 43, the “CPIa-IIa (peak) log fluorescence intensity” value [7, 10] was 40 and the “CPIa-IIa (mean) log fluorescence intensity” value [7, 11] was 62. The “CPIa-IIa (peak) log fluorescence intensity” value [7, 11] was 59, the “CPIa-IIa (mean) log fluorescence intensity” value [7, 12] was 62 and the “CPIa-IIa (peak) log fluorescence intensity” value [7, 12] was 53. For the same compound, the “CPIa-IIa (mean) log fluorescence intensity” value [7, 13] was 40 and the “CPIa-IIa (peak) log fluorescence intensity” value [7, 13] was 48.

Reference: US6552014B2, “Methods of inhibiting platelet activation with selective serotonin reuptake inhibitors” (HeartDrug Research, L.L.C., priority 1999, dated 2003)
